Converted amounts (≈) assume the structure as drawn.
Columns and labels:
human PAFR = biological target: T1, human PAFR (Homo sapiens, UniProt P25105); experiment: cellular HTRF IP1 endpoint assay: inhibition of PAFR activation by PAF C-16 ligand; format: cell-based; conditions: HEK293 cells overexpressing human PAFR; PAF ligand 11 nM
T1 construct: expressed in transfected cells; host or cells: HEK293
Protocol: The ability of compounds of formula (I.0) to inhibit the activation of the PAF receptor (PAFR) by the PAF C-16 ligand (PAF) is determined using the following cellular HTRF IP1 assay (IP1 Gq assay kit from Cisbio, Cat. no.: 62IP1APEJ) in assay buffer (1×HBSS, 20 mM Hepes, pH 7.4, 50 mM LiCl and containing 0.1% (w/v) BSA):
HEK293 cells overexpressing human PAFR (produced in-house) are seeded into a Poly-D-Lysine coated 384 well white cell culture microtiter assay plate with lid (15.000 cells per well). Subsequently, the plates are incubated over night at 37° C./5% CO2. On the next day, cells are being washed and subsequently, various concentrations of the test compounds (compounds in 100% DMSO; final concentration of DMSO in wells is 1%) are added to the assay plate via Echo 555 acoustic liquid handler. Plates are then incubated with lid for 90 minutes at 37° C./5% CO2. Thereafter, PAF ligand (Cayman Chemical Company, Item no.: 60900) is added at a final concentration of 11 nM. Plates are then incubated with lid for 60 minutes at 37° C./5% CO2. Then, 5 μl per well of Anti-IP1-Anti body-Cryptate solution and 5 μL per well of IP1-d2 solution are added to all wells of the plate and the plate is incubated for another 60 minutes light protected at room temperature. The emissions at 620 nm and 665 nm (Excitation wavelength: 320 nm) are measured using an Envision Reader (PerkinElmer).

[1] = aqueous solubility in buffer (from DMSO stock, 24 h shaking, LC-UV); conditions: pH 2.2, aqueous buffer, kinetic from dmso stock
Protocol: The aqueous solubility of the test compound is determined by comparing the amount dissolved in buffer to the amount in an ACN/water (1/1) solution. Starting from a 10 mM DMSO stock solution aliquots are diluted with ACN/water (1/1) or buffer, respectively. After 24 h of shaking, the solutions are filtrated and analyzed by LC-UV. The amount dissolved in buffer is compared to the amount in the ACN solution.
Solubility will usually be measured from 0.001 to 0.125 mg/mL at a DMSO concentration of 2.5%. If more than 90% of the compound is dissolved in buffer, the value is marked with “>”.

T1 sequence (P25105 whole entry): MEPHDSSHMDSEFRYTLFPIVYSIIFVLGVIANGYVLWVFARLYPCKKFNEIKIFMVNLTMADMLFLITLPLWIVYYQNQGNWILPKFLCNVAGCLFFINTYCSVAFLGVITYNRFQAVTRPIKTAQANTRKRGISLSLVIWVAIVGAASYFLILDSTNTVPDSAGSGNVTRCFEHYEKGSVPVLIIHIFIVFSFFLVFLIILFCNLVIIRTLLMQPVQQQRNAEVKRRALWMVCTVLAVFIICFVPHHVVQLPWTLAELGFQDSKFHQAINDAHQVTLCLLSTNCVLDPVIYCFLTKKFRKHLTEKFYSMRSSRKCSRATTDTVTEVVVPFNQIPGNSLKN

SMILES	IC50 (human PAFR) [nM]	solubility at 24 h [1] [µg/mL]
Cc1nnc2n1-c1sc3c(c1[C@H](c1ccccc1Cl)NC2)C[C@H](C(=O)N[C@@H]1CCC(F)(F)C1)C3 [Example 16]	1.4	> 118
Cc1nnc2n1-c1sc3c(c1[C@H](c1ccccc1Cl)NC2)C[C@H](C(=O)N1CCC(F)(F)CC1)C3 [Example 18]	3.1	> 112
Cc1nnc2n1-c1sc3c(c1[C@H](c1ccccc1Cl)NC2)C[C@H](C(=O)N[C@@H](C)CF)C3 [Example 20]	4.5	> 128
Cc1nnc2n1-c1sc3c(c1[C@H](c1ccccc1Cl)NC2)C[C@H](C(=O)N1CC2(CCCO2)C1)C3 [Example 22]	5.3	> 112
Cc1nnc2n1-c1sc3c(c1[C@H](c1ccccc1Cl)NC2)C[C@H](C(=O)NC1CCC(F)(F)CC1)C3 [Example 23]	1.3	> 114
Cc1nnc2n1-c1sc3c(c1[C@H](c1ccccc1Cl)NC2)C[C@H](C(=O)N1CC(C)(C)C1)C3 [Example 24]	2	> 105
Cc1noc(C)c1NC(=O)[C@@H]1Cc2sc3c(c2C1)[C@H](c1ccccc1Cl)NCc1nnc(C)n1-3 [Example 25]	4.3	> 136
Cc1nnc2n1-c1sc3c(c1[C@H](c1ccccc1Cl)NC2)C[C@H](C(=O)N1C[C@@H](C)O[C@@H](C)C1)C3 [Example 27]	5.5	> 133
Cc1ncc2n1CCN(C(=O)[C@@H]1Cc3sc4c(c3C1)[C@H](c1ccccc1Cl)NCc1nnc(C)n1-4)C2 [Example 29]	69	> 110
Cc1nnc2n1-c1sc3c(c1[C@H](c1ccccc1Cl)NC2)C[C@H](C(=O)N1CC2(CCOCC2)C1)C3 [Example 30]	12	80 (≈ 157 µM)
Cc1nnc2n1-c1sc3c(c1[C@H](c1ccccc1Cl)NC2)C[C@H](C(=O)NCc1ccccc1)C3 [Example 31]	1.1	> 132
Cc1nnc2n1-c1sc3c(c1[C@H](c1ccccc1Cl)NC2)C[C@H](C(=O)N1CCC1)C3 [Example 32]	34	> 139
Cc1nnc2n1-c1sc3c(c1[C@H](c1ccccc1Cl)NC2)C[C@H](C(=O)NC(C)(C)CO)C3 [Example 33]	2.8	> 139
Cc1nnc2n1-c1sc3c(c1[C@H](c1ccccc1Cl)NC2)C[C@H](C(=O)N(C)Cc1ccccc1)C3 [Example 34]	2.1	> 126
Cc1nnc2n1-c1sc3c(c1[C@H](c1ccccc1Cl)NC2)C[C@H](C(=O)NCc1cccc(C(F)(F)F)n1)C3 [Example 35]	3.8	106 (≈ 190 µM)
Cc1nnc2n1-c1sc3c(c1[C@H](c1ccccc1Cl)NC2)C[C@H](C(=O)NCc1ncccc1C(F)(F)F)C3 [Example 36]	3	95 (≈ 170 µM)
Cc1nnc2n1-c1sc3c(c1[C@H](c1ccccc1Cl)NC2)C[C@H](C(=O)NCc1cc(C(F)(F)F)ccn1)C3 [Example 37]	2.9	100 (≈ 179 µM)
Cc1nnc2n1-c1sc3c(c1[C@H](c1ccccc1Cl)NC2)C[C@H](C(=O)NCc1ccc(C(F)(F)F)cn1)C3 [Example 38]	1.4	108 (≈ 193 µM)
Cc1nnc2n1-c1sc3c(c1[C@H](c1ccccc1Cl)NC2)C[C@H](C(=O)NCc1cscn1)C3 [Example 39]	60	> 110

SMILES	IC50 (human PAFR) [nM]	solubility at 24 h [1] [µg/mL]
Cc1nnc2n1-c1sc3c(c1[C@H](c1ccccc1Cl)NC2)C[C@H](C(=O)NCc1nccs1)C3 [Example 40]	83	> 111
COc1ccc(CNC(=O)[C@@H]2Cc3sc4c(c3C2)[C@H](c2ccccc2Cl)NCc2nnc(C)n2-4)cn1 [Example 41]	11	> 119
Cc1nnc2n1-c1sc3c(c1[C@H](c1ccccc1Cl)NC2)C[C@H](C(=O)NCc1cncnc1)C3 [Example 42]	138	> 121
Cc1nnc2n1-c1sc3c(c1[C@H](c1ccccc1Cl)NC2)C[C@H](C(=O)NCc1cncc(C(F)(F)F)c1)C3 [Example 43]	2.6	104 (≈ 186 µM)
Cc1nnc2n1-c1sc3c(c1[C@H](c1ccccc1Cl)NC2)C[C@H](C(=O)NCc1ccnnc1)C3 [Example 44]	41	> 112
Cc1nnc2n1-c1sc3c(c1[C@H](c1ccccc1Cl)NC2)C[C@H](C(=O)NCc1ccnc(C(F)(F)F)c1)C3 [Example 45]	1.9	> 140
Cc1nnc2n1-c1sc3c(c1[C@H](c1ccccc1Cl)NC2)C[C@H](C(=O)NCc1cnc(C(F)(F)F)nc1)C3 [Example 46]	6.3	112 (≈ 200 µM)
Cc1ncc(CNC(=O)[C@@H]2Cc3sc4c(c3C2)[C@H](c2ccccc2Cl)NCc2nnc(C)n2-4)s1 [Example 47]	12	> 115
Cc1ncsc1CNC(=O)[C@@H]1Cc2sc3c(c2C1)[C@H](c1ccccc1Cl)NCc1nnc(C)n1-3 [Example 48]	15	> 128
Cc1nnc2n1-c1sc3c(c1[C@H](c1ccccc1Cl)NC2)C[C@H](C(=O)NCc1ccc(Cl)cn1)C3 [Example 49]	1.9	101 (≈ 192 µM)
CCC12CC(NC(=O)[C@@H]3Cc4sc5c(c4C3)[C@H](c3ccccc3Cl)NCc3nnc(C)n3-5)(C1)C2 [Example 50]	0.5	98 (≈ 198 µM)
Cc1nnc2n1-c1sc3c(c1[C@H](c1ccccc1Cl)NC2)C[C@H](C(=O)NC12CC(C1)C2)C3 [Example 51]	2.2	> 116
COc1ccc(Cl)c(C2NCc3nnc(C)n3-c3sc4c(c32)CC(C(=O)N2CCOCC2)C4)c1 (centres unmarked) [Example 62, 9-(2-Chloro-5-methoxyphenyl)-3-methyl-13-(morpholine-4-carbonyl)-16-thia-2,4,5,8-tetraazatetracyclo-[8.6.0.0^2,6.0^11,15]hexadeca-1(10),3,5,11(15)-tetraene]	94	> 118
Cc1ccccc1[C@@H]1NCc2nnc(C)n2-c2sc3c(c21)C[C@H](C(=O)N1CCOCC1)C3 [Example 64, (9S,13S)-3-methyl-9-(2-methylphenyl)-13-(morpholine-4-carbonyl)-16-thia-2,4,5,8-tetraazatetracyclo[8.6.0.0^2,6.0^11,15]-hexadeca-1(10),3,5,11(15)-tetraene]	210	> 108
Cc1nnc2n1-c1sc3c(c1C(c1ccccc1Cl)NC2)C[C@H](C(=O)NC(C)(C)CO)C3 (stereo partly drawn) [Example 65, (13S)-9-(2-Chlorophenyl)-N-(1-hydroxy-2-methylpropan-2-yl)-3-methyl-16-thia-2,4,5,8-tetraazatetracyclo-[8.6.0.0^2,6.0^11,15]hexadeca-1(10),3,5,11(15)-tetraene-13-carboxamide]	11	> 147
CCc1nnc2n1-c1sc3c(c1C(c1ccccc1Cl)NC2)CC(C(=O)N1CCOCC1)C3 (centres unmarked) [Example 67]	73	> 121
CCc1nnc2n1-c1sc3c(c1[C@@H](c1ccccc1Cl)NC2)C[C@H](C(=O)N1CCOCC1)C3 [Example 68]	> 999	> 116
CCc1nnc2n1-c1sc3c(c1[C@H](c1ccccc1Cl)NC2)C[C@H](C(=O)N1CCOCC1)C3 [Example 69]	35	> 121

— patent US11766443B2, “Cyclopentathiophene carboxamide derivatives as platelet activating factor receptor antagonists” (Boehringer Ingelheim International GmbH, priority 2021, dated 2023)
